Measurements published in publication PMC10489750, “Exploration of Baicalein-Core Derivatives as Potent Antifungal Agents: SAR and Mechanism Insights” (Molecules, 2023).

Target: T1, Eno1 (Candida albicans, UniProt P30575)
T1 sequence (P30575 1-440): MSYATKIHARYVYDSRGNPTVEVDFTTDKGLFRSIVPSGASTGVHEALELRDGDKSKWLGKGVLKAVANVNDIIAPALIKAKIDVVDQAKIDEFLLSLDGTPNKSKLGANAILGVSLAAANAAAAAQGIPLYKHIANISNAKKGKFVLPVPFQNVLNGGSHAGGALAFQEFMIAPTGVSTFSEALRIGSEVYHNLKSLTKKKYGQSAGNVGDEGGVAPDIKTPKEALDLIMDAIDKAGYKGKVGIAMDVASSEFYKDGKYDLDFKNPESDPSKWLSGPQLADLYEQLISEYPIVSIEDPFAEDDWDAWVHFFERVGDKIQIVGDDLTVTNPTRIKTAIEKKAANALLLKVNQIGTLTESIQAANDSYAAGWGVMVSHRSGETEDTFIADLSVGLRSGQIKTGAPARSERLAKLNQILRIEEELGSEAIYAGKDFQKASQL
Experiment: in vitro enolase assay, […] compound, absorbance at […] nm, […] Eno1
Format: biochemical

Nc1ccc(-c2cc(=O)c3c(O)c(O)c(O)cc3o2)cc1 [B5, 2-(4-aminophenyl)-5,6,7-trihydroxy-4H-chromen-4-one]
in vitro enolase assay, 200 μM compound, absorbance at 240 nm, 30 nM Eno1: B5 exhibited some inhibitory ability in in vitro enzyme inhibition assay, although it was weaker than BE
